Here are results for 2 molecules from US20240270809A1, “ORAL GLP RECEPTOR AGONISTS” (priority 2020, published 2024).

Read-outs that look alike come from different tables or passages of the source. Positions of bridges follow the written chain, without caps; N, C: chain ends. Non-standard residues stand in square brackets, D forms with d. Residues, ends and D or L forms follow the SMILES beside them. *: point of attachment. Malonyl(2,2-Me2,histaminyl) = CC(C)(C(=O)NCCc1cnc[nH]1)C(=O)*; Ala(1H-tetrazol-5-yl) = N[C@@H](Cc1nnn[nH]1)C(=O)O; αMePhe(2-F) = C[C@](N)(Cc1ccccc1F)C(=O)O; Nle = CCCC[C@H](N)C(=O)O

Data set [1] in a line: Stability of peptides in Fasted-State Simulated Intestinal Fluid (FaSSIF). The settings on record: FaSSIF with 10 mg/ml pancreatin; t=30 mins, 37° C., pH 6.5, 10 mg/ml pancreatin. It is filed as in vitro ADME.
In data set [2] the target is T1, human GLP2 receptor (Homo sapiens, UniProt O95838).
T1 construct: expressed in transfected cells; host or cells: HEK cells, BacMam virus transduction
T1 sequence (O95838 1-553): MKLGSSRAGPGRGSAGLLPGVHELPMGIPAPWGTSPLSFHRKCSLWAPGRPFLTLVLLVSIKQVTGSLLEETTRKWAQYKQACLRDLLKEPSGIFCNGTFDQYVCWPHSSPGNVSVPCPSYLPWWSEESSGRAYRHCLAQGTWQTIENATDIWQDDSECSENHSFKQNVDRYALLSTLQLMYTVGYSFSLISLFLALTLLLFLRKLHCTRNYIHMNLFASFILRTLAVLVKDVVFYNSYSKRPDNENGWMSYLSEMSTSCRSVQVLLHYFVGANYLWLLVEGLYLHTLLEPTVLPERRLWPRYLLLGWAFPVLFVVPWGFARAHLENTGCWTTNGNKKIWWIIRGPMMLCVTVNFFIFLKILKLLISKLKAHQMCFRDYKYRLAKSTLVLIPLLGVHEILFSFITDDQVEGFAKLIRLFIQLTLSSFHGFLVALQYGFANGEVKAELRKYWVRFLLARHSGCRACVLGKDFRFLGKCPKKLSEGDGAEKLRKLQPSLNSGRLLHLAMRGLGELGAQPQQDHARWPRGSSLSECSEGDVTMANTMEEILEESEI
Kind of data set: cAMP accumulation assay, functional agonism of human GLP2 receptor. It is filed as cell-based. The settings on record: HEK cells infected with human GLP2 receptor BacMam virus, HTRF cAMP; for Emax: HEK293, read-out: Human GLP-2R agonist cAMP Emax; for EC50: read-out: Human GLP-2R agonist cAMP pEC50 (converted). Put shortly:
(§1)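 HEK cells transduced for 24 hours with human GLP2 or GLP1 receptor BacMam virus were frozen, then stimulated with agonist in HBSS containing 0.5 mM IBMX. After 45 min at 37° C, cAMP was measured by HTRF after adding detection reagents in lysis buffer.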
On the technique in general: Changes in cAMP serve as a functional read-out for many G protein-coupled receptors.

For data set [3], the target named is T2, mouse GLP2 receptor (Mus musculus, UniProt Q5IXF8).
T2 construct: expressed in transfected cells; host or cells: HEK cells, transient transfection with GeneJuice
T2 sequence (Q5IXF8 1-512): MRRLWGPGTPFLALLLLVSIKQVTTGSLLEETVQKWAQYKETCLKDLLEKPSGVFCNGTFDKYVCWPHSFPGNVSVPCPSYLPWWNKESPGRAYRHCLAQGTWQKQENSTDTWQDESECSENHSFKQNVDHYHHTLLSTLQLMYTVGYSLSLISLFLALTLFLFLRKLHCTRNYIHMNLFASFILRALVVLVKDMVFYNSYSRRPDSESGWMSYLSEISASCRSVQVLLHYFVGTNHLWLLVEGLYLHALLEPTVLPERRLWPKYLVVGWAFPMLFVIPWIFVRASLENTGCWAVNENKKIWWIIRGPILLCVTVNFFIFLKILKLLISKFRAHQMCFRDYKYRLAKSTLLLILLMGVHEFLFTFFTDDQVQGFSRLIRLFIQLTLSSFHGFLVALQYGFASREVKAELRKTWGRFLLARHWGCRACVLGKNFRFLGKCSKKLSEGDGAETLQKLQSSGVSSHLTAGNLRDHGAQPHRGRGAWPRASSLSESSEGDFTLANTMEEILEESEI
As to the kind of experiment: cAMP accumulation assay, functional agonism of mouse GLP2 receptor. It is filed as cell-based. The essentials:
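Transiently transfected HEK cells (24 h, frozen, 8000/well) in HBSS with 0.5 mM IBMX exposed to compound concentration series for 45 min at 37 °C. cAMP measured by HTRF after lysis and 1 h at RT; pEC50 from four-parameter concentration-response fit.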

Data set [4] concerns the target T3, mouse GLP1 receptor (Mus musculus, UniProt O35659).
T3 construct: expressed in transfected cells; host or cells: HEK cells, transient transfection with GeneJuice
T3 sequence (O35659 22-463): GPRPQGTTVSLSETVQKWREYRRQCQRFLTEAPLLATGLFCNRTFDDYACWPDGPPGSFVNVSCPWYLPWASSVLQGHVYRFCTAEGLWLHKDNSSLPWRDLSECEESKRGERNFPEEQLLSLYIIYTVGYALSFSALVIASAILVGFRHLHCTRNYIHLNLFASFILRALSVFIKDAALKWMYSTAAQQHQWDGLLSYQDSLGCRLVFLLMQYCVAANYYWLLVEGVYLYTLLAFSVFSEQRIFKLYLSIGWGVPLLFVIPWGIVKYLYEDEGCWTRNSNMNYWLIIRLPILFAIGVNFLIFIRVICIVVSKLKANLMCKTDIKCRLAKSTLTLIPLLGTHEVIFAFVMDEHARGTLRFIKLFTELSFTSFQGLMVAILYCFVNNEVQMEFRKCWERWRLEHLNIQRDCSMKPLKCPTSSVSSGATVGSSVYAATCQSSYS
As to the kind of experiment: cAMP accumulation assay, functional agonism of mouse GLP1 receptor. It is filed as cell-based. The settings on record: HEK cells transiently transfected with mouse GLP1 receptor, HTRF cAMP.

Data set [5] in a line: Stability of peptides in Fasted-State Simulated Gastric Fluid (FaSSGF). The settings on record: FaSSGF with 0.1 mg/ml pepsin; t=30 mins, 37° C., pH 1.6, 0.1 mg/ml pepsin. It is filed as in vitro ADME.
Protocol: Stability of peptides was tested in Fasted-State Simulated gastric Fluid (FaSSGF) prepared according to manufacturer's protocol (Biorelevant, art. no. FFF01). […] FaSSGF was pre-incubated for 15 min at 37° C. and spiked with test and reference item working solutions. Experiments were conducted in duplicate in a non-serial manner. The total incubation volume per replicate was 150 μl. […] All samples and calibration standards (prepared in FaSSGF) were precipitated by addition of 300 μl precipitant (ACN / 2% acetic acid / 0.2% HFBA, (precipitation regent, PR)) containing internal standards (ISTD) to 150 μl sample. After incubation for 1 h at room temperature all samples were centrifuged for 10 min at 2,200×g (room temperature).
The target in data set [6] is T4, human GLP1 receptor (Homo sapiens, UniProt P43220).
T4 construct: expressed in transfected cells; host or cells: HEK cells, BacMam virus transduction
T4 sequence (P43220 24-463): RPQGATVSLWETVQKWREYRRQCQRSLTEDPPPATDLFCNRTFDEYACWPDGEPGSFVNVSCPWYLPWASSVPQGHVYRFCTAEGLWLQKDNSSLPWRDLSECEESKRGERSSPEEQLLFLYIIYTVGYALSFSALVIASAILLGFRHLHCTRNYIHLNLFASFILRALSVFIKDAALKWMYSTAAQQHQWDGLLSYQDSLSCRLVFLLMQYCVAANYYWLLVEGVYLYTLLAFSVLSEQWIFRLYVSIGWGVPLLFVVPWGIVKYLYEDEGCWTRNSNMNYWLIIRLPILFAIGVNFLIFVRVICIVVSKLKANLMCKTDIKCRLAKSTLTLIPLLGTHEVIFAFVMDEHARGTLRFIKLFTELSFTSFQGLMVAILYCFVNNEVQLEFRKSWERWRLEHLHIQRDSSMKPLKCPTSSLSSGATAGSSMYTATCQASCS
Kind of data set: cAMP accumulation assay, functional agonism of human GLP1 receptor. The settings on record: HEK cells infected with human GLP1 receptor BacMam virus, HTRF cAMP; for Emax: HEK293, read-out: Human GLP-1R agonist cAMP Emax; for EC50: read-out: Human GLP-1R agonist cAMP pEC50 (converted). Type of data set: cell-based. The essentials:
as §1

Data set [7] is described as follows: Stability of peptides in rat intestinal fluid (ratIF). The settings on record: Sprague Dawley, undiluted rat small intestinal fluid (ratIF).
Protocol: (§2) Peptides were tested for in vitro stability in native intestinal fluid obtained from the rat small intestine. Rat Sprague Dawley Small Intestinal Fluid (ratIF) (from Biotrend art. no. RSD-SIF-MI-30ML, undiluted) was preincubated for 15 min at 37° C. and spiked with test and reference item working solutions. Experiments were conducted in duplicate in a non-serial manner. The total incubation volume per replicate was 150 μl. […] All samples and calibration standards (prepared in ratIF) were precipitated by addition of 300 μl precipitant (ACN / 2% acetic acid / 0.2% HFBA, (precipitation regent, PR)) containing internal standards (ISTD) to 150 μl sample. After incubation for 1 h at room temperature all samples were centrifuged for 10 min at 2,200×g (room temperature).
Data set [8] can be described thus: in vitro. The settings on record: Sprague Dawley, rat, real gastrointestinal fluid or homogenate.
Protocol: as §2

The term share remaining denotes the share of the starting amount still present when the sample was taken. In general, Emax refers to the greatest response seen or fitted, relative to the assay's reference. With `CCCC[C@@H]1NC(=O)[C@H](CCC(=O)O)NC(=O)[C@@H](NC(=O)[C@H](CO)NC(=O)[C@H](Cc2ccccc2)NC(=O)[C@H](CO)NC(=O)CNC(=O)[C@H](Cc2nn[nH]n2)NC(=O)C(C)(C)C(=O)NCCc2c[nH]cn2)CCCCNC(=O)C[C@@H](C(=O)N[C@H](C(=O)N[C@@H](CC(C)C)C(=O)N[C@@H](CC(=O)O)C(=O)N[C@H]2CCC(=O)NCCCC[C@@H](C(=O)N[C@@H](CC(=O)O)C(=O)N[C@@H](Cc3ccccc3)C(=O)N[C@H](C(=O)N[C@@H](CC(N)=O)C(=O)N[C@@H](Cc3c[nH]c4ccccc34)C(=O)N[C@@H](CC(C)C)C(=O)N[C@H](C(=O)N[C@@H](CCC(N)=O)C(=O)N[C@H](C(=O)N[C@H]3CCC(=O)NCCCC[C@@H](C(N)=O)NC(=O)[C@H]([C@@H](C)O)NC(=O)[C@H]([C@@H](C)CC)NC3=O)[C@@H](C)O)[C@@H](C)CC)[C@@H](C)CC)NC(=O)[C@H](C)NC(=O)[C@H](C)NC(=O)[C@H](CCCCN)NC2=O)[C@@H](C)CC)NC(=O)[C@@H](Cc2ccccc2)NC1=O` [Example 2] ({Malonyl(2,2-Me2,histaminyl)}-[Ala(1H-tetrazol-5-yl)]GSFSKE[Nle][dF]DILDEKAAKDFINWLIQTEITK-NH2; lactam 6-10, 14-18, 28-31 (inferred); C-terminus assumed), the share remaining at 0.5 h in data set [1] is 11%; in data set [5], 34%; in data set [7] it was 22.5%. The Emax in data set [2] turned out to be 103%; in data set [3] (HEK293, HEK cells transiently transfected with mouse GLP2 receptor, HTRF cAMP, read-out: Mouse GLP-2R agonist cAMP Emax) it was 91.6%; in data set [4] (HEK293, read-out: Mouse GLP-1R agonist cAMP Emax), 94.3%; in data set [6], 92.5%. For the same molecule, the EC50 in data set [2] is 0.0316 nM; in data set [3] (HEK cells transiently transfected with mouse GLP2 receptor, HTRF cAMP, read-out: Mouse GLP-2R agonist cAMP pEC50 (converted)), 1 nM; in data set [4] (read-out: Mouse GLP-1R agonist cAMP pEC50 (converted)) it was 0.0398 nM; in data set [6] it was 0.398 nM.

Turning to `CCCC[C@@H]1NC(=O)[C@H](CCC(=O)O)NC(=O)[C@@H](NC(=O)[C@H](CO)NC(=O)[C@](C)(Cc2ccccc2F)NC(=O)[C@H](CO)NC(=O)[C@@H](C)NC(=O)[C@H](Cc2nn[nH]n2)NC(=O)C(C)(C)C(=O)NCCc2c[nH]cn2)CCCCNC(=O)C[C@@H](C(=O)N[C@H](C(=O)N[C@@H](CC(C)C)C(=O)N[C@@H](CC(=O)O)C(=O)N[C@H]2CCC(=O)NCCCC[C@@H](C(=O)N[C@@H](CC(=O)O)C(=O)N[C@@H](Cc3ccccc3)C(=O)N[C@H](C(=O)N[C@H]3CCCCNC(=O)C[C@@H](C(=O)N[C@H]4CCC(=O)NCCCC[C@@H](C(N)=O)NC(=O)[C@H]([C@@H](C)O)NC(=O)[C@H]([C@@H](C)CC)NC(=O)[C@H](CCCCN)NC4=O)NC(=O)[C@H]([C@@H](C)CC)NC(=O)[C@H](CC(C)C)NC(=O)[C@H](Cc4c[nH]c5ccccc45)NC3=O)[C@@H](C)CC)NC(=O)[C@H](C)NC(=O)[C@H](C)NC(=O)[C@H](CCCCN)NC2=O)[C@@H](C)CC)NC(=O)[C@@H](Cc2ccccc2)NC1=O` [Example 55] ({Malonyl(2,2-Me2,histaminyl)}-[Ala(1H-tetrazol-5-yl)][dA]S[αMePhe(2-F)]SKE[Nle][dF]DILDEKAAKDFIKWLIDEKITK-NH2; lactam 6-10, 14-18, 22-26, 27-31 (inferred); C-terminus assumed), the Emax in data set [2] was 103%; in data set [3] (HEK293, read-out: Mouse GLP-2R agonist cAMP Emax) it was 101%; in data set [6] it was 97.9%. Moreover, the EC50 is 0.01 nM in data set [2], 0.316 nM in data set [3] and 0.0501 nM in data set [6]. In data set [8], this molecule displayed an amount remaining at 0.5 h of 64.9%.
